Laboratory results: patent publication US6303577A, “Use of a peptide compound in the treatment of systemic lupus erythematosus” (Tecnogen S.C.p.A., priority 1998, dated 2001)

Legend:
MRL/Ipr mice [1] = assay: Urine protein levels (dipstick) in mouse model of Systemic Lupus Erythematosus; type: in vivo; conditions: for Mice with proteinuria level >1 g/L (%): 1 mg i.p. twice a week from 7 weeks of age
Experimental: (§1) In vivo studies on the activity of the peptide compounds of formula (I) were carried out by using an experimental animal model of human Systemic Lupus Erythematosus. MRL/Ipr, NZB/NZW or BXSB denote mouse strains that spontaneously develop an autoimmune syndrome having notable similarities to human Systemic Lupus Erythematosus. The MRL-Ipr/Ipr strain is homozigotic for Ipr gene. The lpr mutation causes functional defects in the Fas Ag. Fas belongs to the TNF receptor family and mediates apoptosis (Watanabe-Fukunaga, R. et al., "Nature", 356, 314, 1992; Itoh, N., et al., "Cell", 66, 233, 1991; Murphy, E. D., "Immunological defects in Laboratory Animals", 2, 143, 1981; Steinberg, A. D., "Semin. Immunol.", 6, 55, 1994). Autoimmune disease in MRL/Ipr mice is characterized by autoantibody production, vasculitis, arthritis, and glomerulonephritis that is the major cause of death (Theofilopoulos, A. N., et al., "Adv. Immunol.", 37, 269, 1985; Cohen, P. L., et al., "Annu. Rev. Immunol.", 9, 243, 1991).
(§2) At 7 weeks of age, mice were treated twice a week with 1 mg of D-PAM, L-PAM or placebo […] administered intraperitoneally. The treatment was stopped at 30 weeks of age. Mice were observed daily for clinical signs of disease and for mortality and were bled every 2 weeks for determination of anti-DNA antibody production, while urine protein levels were determined on samples taken twice a week.
Urine protein levels were determined by colorimetric analysis using dipsticks (Combur 7, Boehringer Mannheim, n. cat. 185515) according to protocols from the manufacturer (Wang et al., "Proc. Natl. Acad. Sci. USA", 93, 8563-8568, 1996).

MRL/Ipr mice [2] = assay: Survival in mouse model of Systemic Lupus Erythematosus; type: in vivo; conditions: 1 mg i.p. twice a week from 7 weeks of age
Experimental: as §1, §2
Coincident with ameliorating the clinical signs of severe immune complex nephritis, a dramatic prolongation of survival was observed.

MRL/Ipr mice [3] = assay: Histopathologic examination of renal tissue; type: in vivo, mouse; conditions: hematoxylin and eosin, light microscope
Experimental: as §1
At 7 weeks of age, mice were treated twice a week with 1 mg of D-PAM, L-PAM or placebo […] administered intraperitoneally. […] Mice were observed daily for clinical signs of disease and for mortality and were bled every 2 weeks for determination of anti-DNA antibody production, while urine protein levels were determined on samples taken twice a week. […]

Balb/c mice = conditions: mouse, in vivo
Experimental: The ability of the peptide compounds of formula (I) to evoke an antibody response has been evaluated by immunizing two groups of four Balb/c mice with 100 μg of D-PAM or L-PAM respectively by i.p. injection. After the first immunization, the same immunogen was administered for two subsequent boosts, blood samples were collected from each animal for monitoring antibody titers by an ELISA assay as follow.
Polystyrene microtiter plates (Falcon Cat. No 3912) were coated with a 50 μg/ml D-PAM and L-PAM conjugated to BSA (100 μl/well) in 0.1 M sodium carbonate buffer (pH 8.5) and incubated over night at 4° C. After washing the microtiter plates ten times with a 50 mM phosphate, 150 mM NaCI pH 7.2 buffer (PBS), the wells were saturated with 200 μl of PBS containing bovine serum albumin (BSA, Sigma Cat. No A-9418) for 1 hour at 37° C., to block the uncoated plastic surface. Plates were then washed again with PBS containing 0.05% Tween 20 (PBS-T), and filled with samples (100 μl/well) previously diluted with PBS-T containing 1% BSA (PBS-T-B). […] The color was allowed to develop for 30' and absorbances were read at 405 nm with an ELISA plate reader (Labsystems Multiskan Bichromatic). […]

in vitro = in vitro ADME, mouse; conditions: for remaining at 5 min / remaining at 20 min / remaining at 40 min / remaining at 1 h: mouse, serum
Experimental: The stability of the peptide compounds of formula (I) to proteolytic attack by proteases has been evaluated by High Performance Liquid Chromatography (HPLC).
Mouse sera were obtained by cutting a small section off tip of tail and collecting some blood drops. After collection, blood was incubated for 1 hour at 37° C. and then serum was removed from the clot by centrifugation at 1200 g for 20' at 4° C. Various amounts of peptide compounds of formula (I) were added to 50 μl of serum and the mixture was incubated at 37° C. for different periods of time. Afterwards, 2 μl of the reaction mixture were added to 50 μl of 0.1 M acetic acid in order to elute the peptide compound from serum immunoglobulins. Samples were then stored at -80° C. until use.
Analysis of samples was carried out on an Aquapore RP-8 column (30×2.1 mm I.D.), eluting the equilibrated column at a flow rate of 0.5 ml/min with a linear gradient of 0.1% trifluoracetic acid buffer containing increasing acetonitrile concentration from 5% to 60% in 35'. Elution was monitored by absorbance at 225 nm.

MRL/Ipr mice [4] = assay: Serum anti-DNA antibodies by ELISA in mouse model of Systemic Lupus Erythematosus; type: in vivo; conditions: 1 mg i.p. twice a week from 7 weeks of age
Experimental: as §1, §2
Standard ELISA assay to measure the serum levels of anti-DNA antibodies was performed as follow. Microtiter plates (Costar, Cat. No 3590) were coated with a 10 μg/ml DNA (Sigma Cat. No D-8899) solution (100 μl/well) in 0.01 M phosphate buffer (pH 8.0) and incubated over night at 4° C. After washing the microtiter plates ten times with a 50 mM phosphate, 150 mM NaCl pH 7.2 buffer (PBS) containing 0.05% Tween (PBS-T), the wells were saturated with 200 μl of PBS-T containing fetal calf serum (1%) heat-inactivated 1 hour at 56° C. (PBS-T-FCS), and incubated for 2 hours at room temperature, to block the uncoated plastic surface. Plates were then washed again with PBS-T, and filled with samples (100 μl/well) previously diluted with PBS-T-FCS. After incubation for 2 hours at room temperature and subsequent washing, wells were filled with 100 μl of horseradish peroxidase labeled goat anti-mouse polyvalent immunoglobulins (IgG, IgA, IgM) (Sigma, Cat. No A-0412) solution diluted 1000 fold with PBS-T-FCS. The plates were then left to stand for 1 hour at room temperature, washed ten times and then filled with 150 μl of ophenylenediamine dihydrochloride (Sigma Cat. No P-6912) chromogenic substrate solution freshly prepared according to protocols from the manufacturer. The color was allowed to develop for 30' and the adsorbance at 450 nm were determined with an ELISA plate reader (Labsystems Multiskan Bichromatic).

C[C@H](O)[C@@H](NC(=O)[C@H](N)CCCNC(=N)N)C(=O)N[C@H](Cc1ccc(O)cc1)C(=O)NCCCC[C@H](NC(=O)[C@@H](Cc1ccc(O)cc1)NC(=O)[C@H](NC(=O)[C@H](N)CCCNC(=N)N)[C@H](C)O)C(=O)NCCCC[C@H](NC(=O)[C@H](CCCCNC(=O)[C@@H](Cc1ccc(O)cc1)NC(=O)[C@H](NC(=O)[C@H](N)CCCNC(=N)N)[C@H](C)O)NC(=O)[C@@H](Cc1ccc(O)cc1)NC(=O)[C@H](NC(=O)[C@H](N)CCCNC(=N)N)[C@H](C)O)C(=O)NCC(=O)O [D-PAM, (H2 N-D-Arg-D-Thr-D-Tyr-CO)4 -(Lys)2 -Lys-Gly-OH]
Onset of severe proteinuria versus untreated animals (in words) (MRL/Ipr mice [1]; 1 mg i.p. twice a week): marked delay in the onset of severe proteinuria
Time until which treated mice did not develop proteinuria (MRL/Ipr mice [1]; 1 mg i.p. twice a week): 20 weeks
Mice with proteinuria level >1 g/L (%) (MRL/Ipr mice [1]; time 8 weeks): 0%
Mice with proteinuria level >1 g/L (%) (MRL/Ipr mice [1]; time 13 weeks): 0%
Mice with proteinuria level >1 g/L (%) (MRL/Ipr mice [1]; time 18 weeks): 0%
Mice with proteinuria level >1 g/L (%) (MRL/Ipr mice [1]; time 23 weeks): 20%
Mice with proteinuria level >1 g/L (%) (MRL/Ipr mice [1]; time 28 weeks): 30%
Survival rate (%) (MRL/Ipr mice [2]; time 15 weeks): 100%
Survival rate (%) (MRL/Ipr mice [2]; time 20 weeks): 100%
Survival rate (%) (MRL/Ipr mice [2]; time 25 weeks): 90%
Survival rate (%) (MRL/Ipr mice [2]; time 30 weeks): 80%
Glomerulonephropathic progression versus positive control group (in words) (MRL/Ipr mice [3]): evident reduction in the glomerulonephropathic progression
Antibody titer (A 405) (Balb/c mice): 0.663 A 405
Stability to proteolytic attack (in words) (in vitro): more stable to proteolytic attack than L-PAM
remaining at 5 min (in vitro): 83%
remaining at 20 min (in vitro): 73%
remaining at 40 min (in vitro): 68%
remaining at 1 h (in vitro): 63%
Ig Anti-DNA titer (O.D.) fold increase (MRL/Ipr mice [4]; time 8 weeks): 1.8 fold increase
Ig Anti-DNA titer (O.D.) fold increase (MRL/Ipr mice [4]; time 10 weeks): 2.5 fold increase
Ig Anti-DNA titer (O.D.) fold increase (MRL/Ipr mice [4]; time 14 weeks): 3.5 fold increase
Ig Anti-DNA titer (O.D.) fold increase (MRL/Ipr mice [4]; time 16 weeks): 3.5 fold increase
Ig Anti-DNA titer (O.D.) fold increase (MRL/Ipr mice [4]; time 18 weeks): 4.3 fold increase

C[C@@H](O)[C@H](NC(=O)[C@@H](N)CCCNC(=N)N)C(=O)N[C@@H](Cc1ccc(O)cc1)C(=O)NCCCC[C@H](NC(=O)[C@H](Cc1ccc(O)cc1)NC(=O)[C@@H](NC(=O)[C@@H](N)CCCNC(=N)N)[C@@H](C)O)C(=O)NCCCC[C@H](NC(=O)[C@H](CCCCNC(=O)[C@H](Cc1ccc(O)cc1)NC(=O)[C@@H](NC(=O)[C@@H](N)CCCNC(=N)N)[C@@H](C)O)NC(=O)[C@H](Cc1ccc(O)cc1)NC(=O)[C@@H](NC(=O)[C@@H](N)CCCNC(=N)N)[C@@H](C)O)C(=O)NCC(=O)O [L-PAM, (H2 N-L-Arg-L-Thr-L-Tyr-CO)4 -(Lys)2 -Lys-Gly-OH]
Onset of severe proteinuria versus untreated animals (in words) (MRL/Ipr mice [1]; 1 mg i.p. twice a week): marked delay in the onset of severe proteinuria
Mice with proteinuria level >1 g/L (%) (MRL/Ipr mice [1]; time 8 weeks): 0%
Mice with proteinuria level >1 g/L (%) (MRL/Ipr mice [1]; time 13 weeks): 0%
Mice with proteinuria level >1 g/L (%) (MRL/Ipr mice [1]; time 18 weeks): 10%
Mice with proteinuria level >1 g/L (%) (MRL/Ipr mice [1]; time 23 weeks): 50%
Mice with proteinuria level >1 g/L (%) (MRL/Ipr mice [1]; time 28 weeks): 60%
Survival rate (%) (MRL/Ipr mice [2]; time 15 weeks): 100%
Survival rate (%) (MRL/Ipr mice [2]; time 20 weeks): 90%
Survival rate (%) (MRL/Ipr mice [2]; time 25 weeks): 50%
Survival rate (%) (MRL/Ipr mice [2]; time 30 weeks): 40%
Glomerulonephropathic progression versus positive control group (in words) (MRL/Ipr mice [3]): evident reduction in the glomerulonephropathic progression
Antibody titer (A 405) (Balb/c mice): 0.462 A 405
remaining at 5 min (in vitro): 57%
remaining at 20 min (in vitro): 31%
remaining at 40 min (in vitro): 19%
remaining at 1 h (in vitro): 12%
Ig Anti-DNA titer (O.D.) fold increase (MRL/Ipr mice [4]; time 8 weeks): 1.8 fold increase
Ig Anti-DNA titer (O.D.) fold increase (MRL/Ipr mice [4]; time 10 weeks): 2.5 fold increase
Ig Anti-DNA titer (O.D.) fold increase (MRL/Ipr mice [4]; time 14 weeks): 3.6 fold increase
Ig Anti-DNA titer (O.D.) fold increase (MRL/Ipr mice [4]; time 16 weeks): 3.6 fold increase
Ig Anti-DNA titer (O.D.) fold increase (MRL/Ipr mice [4]; time 18 weeks): 4.5 fold increase
